Assay results: ChEMBL document CHEMBL4725370, “Discovery of Proteolysis-Targeting Chimera Molecules that Selectively Degrade the IRAK3 Pseudokinase” (J Med Chem, 2020)
Active and inactive are the calls of the source. The calls are words filed in the database; no cut-off is given here.

Key:
THP-1 [1] = experiment: Selectivity ratio of Kd(app) for displacement of polymer supported probe 25 binding to CDK11 in human THP-1 cell lysates to Kd(app) for displacement of polymer supported probe 25 binding to IRAK3 in human THP-1 cell lysates
[2] = biological target: T1, Protein cereblon/Interleukin-1 receptor-associated kinase 3 (Homo sapiens, UniProt Q9Y616+Q96SW2); experiment: Protac activity at CRBN/IRAK3 in human PBMC derived primary macrophages assessed as induction of IRAK3 degradation at 0.3 uM preincubated for 8 hrs followed by LPS-stimulation and measured after 8 to 32 hrs by Western blot analysis; assay type: tissue-based; details: Primary macrophage
T1 sequence (Q96SW2 whole entry, looked up, one chain of several): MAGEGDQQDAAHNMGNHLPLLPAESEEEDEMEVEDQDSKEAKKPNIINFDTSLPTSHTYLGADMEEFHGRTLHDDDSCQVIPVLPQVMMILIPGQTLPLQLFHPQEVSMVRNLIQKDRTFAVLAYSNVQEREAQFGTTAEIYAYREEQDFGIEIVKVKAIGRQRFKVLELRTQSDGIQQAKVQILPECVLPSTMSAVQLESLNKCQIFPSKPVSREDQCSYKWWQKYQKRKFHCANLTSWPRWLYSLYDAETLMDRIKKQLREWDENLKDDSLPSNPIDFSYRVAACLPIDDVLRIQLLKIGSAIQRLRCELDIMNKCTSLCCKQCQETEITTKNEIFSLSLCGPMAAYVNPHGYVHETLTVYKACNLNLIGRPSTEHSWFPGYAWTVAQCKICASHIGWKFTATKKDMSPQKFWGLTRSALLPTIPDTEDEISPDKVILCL

[3] = biological target: T1, Protein cereblon/Interleukin-1 receptor-associated kinase 3; experiment: Protac activity at CRBN/IRAK3 in human THP1 cells assessed as induction of IRAK3 degradation at 0.1 uM preincubated for 16 hrs followed by compound washout and measured after 24 hrs by Western blot analysis; assay type: cell-based; details: THP-1
[4] = biological target: Protein cereblon/Interleukin-1 receptor-associated kinase 1 (Homo sapiens) (UniProt P51617+Q96SW2); experiment: Protac activity at CRBN/IRAK1 in LPS-induced human THP1 cells assessed as induction of IRAK1 degradation at 0.1 uM measured after 6 hrs by HPLC-MS based global proteomic analysis; assay type: cell-based; details: THP-1
Sequence of Protein cereblon/Interleukin-1 receptor-associated kinase 1 (Homo sapiens) (P51617 whole entry, looked up): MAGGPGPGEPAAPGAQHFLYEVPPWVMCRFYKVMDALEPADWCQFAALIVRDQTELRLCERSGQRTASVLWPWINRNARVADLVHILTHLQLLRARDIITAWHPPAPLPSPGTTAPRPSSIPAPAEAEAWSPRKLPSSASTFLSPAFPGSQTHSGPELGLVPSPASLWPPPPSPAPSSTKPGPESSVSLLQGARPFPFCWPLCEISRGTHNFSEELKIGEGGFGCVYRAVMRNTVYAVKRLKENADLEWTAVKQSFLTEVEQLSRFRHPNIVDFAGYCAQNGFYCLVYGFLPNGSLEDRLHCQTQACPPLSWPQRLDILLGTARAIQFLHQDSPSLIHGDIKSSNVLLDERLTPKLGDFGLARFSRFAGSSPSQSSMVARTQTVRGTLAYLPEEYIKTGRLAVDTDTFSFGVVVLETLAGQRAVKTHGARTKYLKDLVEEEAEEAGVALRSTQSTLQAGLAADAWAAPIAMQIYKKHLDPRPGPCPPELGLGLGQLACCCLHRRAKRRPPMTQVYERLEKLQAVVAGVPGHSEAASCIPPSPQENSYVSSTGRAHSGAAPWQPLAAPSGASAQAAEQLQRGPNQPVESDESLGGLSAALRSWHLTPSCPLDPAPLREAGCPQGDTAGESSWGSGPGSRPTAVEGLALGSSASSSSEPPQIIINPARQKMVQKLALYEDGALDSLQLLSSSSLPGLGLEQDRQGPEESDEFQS
Sequence of Protein cereblon/Interleukin-1 receptor-associated kinase 1 (Homo sapiens) (Q96SW2 whole entry, looked up): as the sequence (Q96SW2 whole entry, looked up, one chain of several) above

[5] = biological target: Protein cereblon/Interleukin-1 receptor-associated kinase 4 (Homo sapiens) (UniProt Q9NWZ3+Q96SW2); experiment: Protac activity at CRBN/IRAK4 in LPS-induced human THP1 cells assessed as induction of IRAK4 degradation at 0.1 uM measured after 6 hrs by HPLC-MS based global proteomic analysis; assay type: cell-based; details: THP-1
Sequence of Protein cereblon/Interleukin-1 receptor-associated kinase 4 (Homo sapiens) (Q96SW2 whole entry, looked up, one chain of several): as above

[6] = biological target: T2, Interleukin-1 receptor-associated kinase 3 (Homo sapiens, UniProt Q9Y616); experiment: Displacement of polymer supported probe 25 binding to IRAK3 in human THP-1 cell lysates preincubated for 45 mins under shaking condition followed by probe addition and measured after 30 mins by mass spectrometry based chemoproteomic analysis; assay type: subcellular; details: read-out: Kd(app)
T2 sequence (Q9Y616 whole entry): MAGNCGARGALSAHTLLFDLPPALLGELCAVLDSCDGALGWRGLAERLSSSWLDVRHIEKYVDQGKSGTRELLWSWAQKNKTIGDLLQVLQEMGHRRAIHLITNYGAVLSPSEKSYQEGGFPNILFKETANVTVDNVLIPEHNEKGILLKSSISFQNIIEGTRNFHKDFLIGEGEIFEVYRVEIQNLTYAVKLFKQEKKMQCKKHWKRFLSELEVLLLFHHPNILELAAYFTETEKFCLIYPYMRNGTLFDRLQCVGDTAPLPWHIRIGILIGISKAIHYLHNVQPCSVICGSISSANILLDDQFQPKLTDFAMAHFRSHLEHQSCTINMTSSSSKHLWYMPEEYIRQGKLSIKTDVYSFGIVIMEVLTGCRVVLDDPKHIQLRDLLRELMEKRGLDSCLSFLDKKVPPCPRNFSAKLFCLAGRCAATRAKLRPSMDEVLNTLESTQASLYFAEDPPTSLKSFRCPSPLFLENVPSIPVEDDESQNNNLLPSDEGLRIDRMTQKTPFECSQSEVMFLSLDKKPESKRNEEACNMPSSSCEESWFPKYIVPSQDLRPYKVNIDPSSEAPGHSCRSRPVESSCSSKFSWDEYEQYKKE

[7] = biological target: BDNF/NT-3 growth factors receptor (Homo sapiens) (UniProt Q16620); experiment: Inhibition of NTRK2 (unknown origin) at 0.1 uM relative to control
Sequence of BDNF/NT-3 growth factors receptor (Homo sapiens) (Q16620 32-822 limits assumed): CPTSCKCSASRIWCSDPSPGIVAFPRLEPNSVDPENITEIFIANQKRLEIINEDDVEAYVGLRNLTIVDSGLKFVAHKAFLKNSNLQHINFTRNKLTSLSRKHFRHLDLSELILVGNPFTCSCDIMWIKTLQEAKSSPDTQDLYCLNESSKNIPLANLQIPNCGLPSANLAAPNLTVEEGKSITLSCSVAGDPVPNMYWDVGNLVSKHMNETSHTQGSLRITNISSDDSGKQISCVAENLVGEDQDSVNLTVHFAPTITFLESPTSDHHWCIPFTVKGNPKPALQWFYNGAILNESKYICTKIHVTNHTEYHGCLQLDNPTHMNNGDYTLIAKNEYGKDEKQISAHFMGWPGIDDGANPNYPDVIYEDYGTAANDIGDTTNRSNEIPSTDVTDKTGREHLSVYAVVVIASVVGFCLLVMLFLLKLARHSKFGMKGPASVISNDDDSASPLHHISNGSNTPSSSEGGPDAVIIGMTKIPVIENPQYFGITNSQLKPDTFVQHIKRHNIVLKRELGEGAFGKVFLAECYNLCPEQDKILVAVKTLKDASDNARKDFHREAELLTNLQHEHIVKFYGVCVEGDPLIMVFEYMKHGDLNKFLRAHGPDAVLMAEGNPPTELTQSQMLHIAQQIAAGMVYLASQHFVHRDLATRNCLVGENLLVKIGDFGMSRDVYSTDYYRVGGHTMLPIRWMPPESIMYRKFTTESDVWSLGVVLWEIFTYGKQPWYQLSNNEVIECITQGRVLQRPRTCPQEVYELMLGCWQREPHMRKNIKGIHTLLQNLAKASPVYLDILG

[8] = biological target: T1, Protein cereblon/Interleukin-1 receptor-associated kinase 3; experiment: Protac activity at CRBN/IRAK3 in LPS-induced human THP1 cells assessed as induction of IRAK3 degradation after 16 hrs by Western blot analysis relative to control; assay type: cell-based; details: THP-1
[9] = biological target: T1, Protein cereblon/Interleukin-1 receptor-associated kinase 3; experiment: Protac activity at CRBN/IRAK3 in human THP1 cells assessed as induction of IRAK3 degradation at 0.1 uM measured after 6 hrs in presence of IRAK3 ligand cis-1-(4-(4-((5-Isopropylpyrrolo[2,1-f][1,2,4]triazin-4-yl)amino)-cyclohexyl)piperazin-1-yl)ethanone by Western blot analysis; assay type: cell-based; details: THP-1
[10] = biological target: Cyclin-dependent kinase 19 (Homo sapiens, UniProt Q9BWU1); experiment: Displacement of polymer supported probe 25 binding to CDK11 in human THP-1 cell lysates preincubated for 45 mins under shaking condition followed by probe addition and measured after 30 mins by mass spectrometry based chemoproteomic analysis; assay type: subcellular; details: read-out: Kd(app)
Sequence of Cyclin-dependent kinase 19 (Q9BWU1 whole entry): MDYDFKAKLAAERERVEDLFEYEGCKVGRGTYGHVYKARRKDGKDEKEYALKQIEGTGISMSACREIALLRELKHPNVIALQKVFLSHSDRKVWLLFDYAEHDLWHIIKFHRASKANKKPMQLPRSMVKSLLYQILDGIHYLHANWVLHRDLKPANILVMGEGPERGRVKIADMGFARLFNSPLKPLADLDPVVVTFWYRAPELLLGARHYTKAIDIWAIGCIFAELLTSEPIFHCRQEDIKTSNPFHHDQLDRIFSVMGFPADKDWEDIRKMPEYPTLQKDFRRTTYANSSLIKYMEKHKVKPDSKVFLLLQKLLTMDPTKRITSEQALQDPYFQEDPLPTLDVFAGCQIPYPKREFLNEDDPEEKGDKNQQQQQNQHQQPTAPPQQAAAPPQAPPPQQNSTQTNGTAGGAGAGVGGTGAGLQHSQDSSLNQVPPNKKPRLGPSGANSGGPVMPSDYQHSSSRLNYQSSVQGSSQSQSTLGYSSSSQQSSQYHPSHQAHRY

[11] = biological target: T3, Interleukin-1 receptor-associated kinase 4 (Homo sapiens, UniProt Q9NWZ3); experiment: Inhibition of recombinant human full-length His-tagged IRAK4 expressed in baculovirus expression system using 5-FAM-IPTSPITTTYFFFKKK-COOH as substrate measured after 240 mins by mobility shift assay
T3 sequence (Q9NWZ3 whole entry): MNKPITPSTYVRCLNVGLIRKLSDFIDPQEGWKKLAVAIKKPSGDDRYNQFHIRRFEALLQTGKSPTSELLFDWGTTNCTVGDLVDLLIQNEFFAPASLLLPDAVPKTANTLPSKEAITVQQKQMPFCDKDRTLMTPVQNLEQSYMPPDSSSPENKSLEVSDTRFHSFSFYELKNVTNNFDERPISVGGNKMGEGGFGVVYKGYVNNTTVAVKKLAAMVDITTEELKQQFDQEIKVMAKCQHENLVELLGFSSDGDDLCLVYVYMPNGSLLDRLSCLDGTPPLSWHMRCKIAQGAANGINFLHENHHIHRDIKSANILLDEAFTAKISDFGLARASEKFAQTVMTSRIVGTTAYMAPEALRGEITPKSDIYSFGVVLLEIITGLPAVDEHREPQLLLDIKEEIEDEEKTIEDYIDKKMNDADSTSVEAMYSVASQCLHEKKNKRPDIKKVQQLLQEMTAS

[12] = biological target: Protein cereblon/Eukaryotic peptide chain release factor GTP-binding subunit ERF3A (Homo sapiens) (UniProt Q96SW2+P15170); experiment: Protac activity at CRBN/GSPT1 in LPS-induced human THP1 cells assessed as induction of GSPT1 degradation at 0.1 uM measured after 6 hrs by HPLC-MS based global proteomic analysis; assay type: cell-based; details: THP-1
Sequence of Protein cereblon/Eukaryotic peptide chain release factor GTP-binding subunit ERF3A (Homo sapiens) (P15170 whole entry, looked up): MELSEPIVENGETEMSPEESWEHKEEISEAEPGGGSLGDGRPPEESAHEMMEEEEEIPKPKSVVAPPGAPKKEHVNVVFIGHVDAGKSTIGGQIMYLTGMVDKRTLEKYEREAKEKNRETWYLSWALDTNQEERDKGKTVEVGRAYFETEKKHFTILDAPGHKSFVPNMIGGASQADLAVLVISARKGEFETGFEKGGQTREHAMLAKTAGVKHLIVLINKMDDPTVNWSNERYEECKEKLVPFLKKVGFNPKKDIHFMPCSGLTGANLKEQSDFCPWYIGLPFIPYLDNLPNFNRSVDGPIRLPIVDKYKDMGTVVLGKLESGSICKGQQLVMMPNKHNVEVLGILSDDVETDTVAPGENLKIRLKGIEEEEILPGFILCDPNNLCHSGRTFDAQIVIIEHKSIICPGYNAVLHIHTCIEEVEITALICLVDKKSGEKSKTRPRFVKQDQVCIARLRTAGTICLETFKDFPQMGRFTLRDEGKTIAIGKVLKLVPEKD
Sequence of Protein cereblon/Eukaryotic peptide chain release factor GTP-binding subunit ERF3A (Homo sapiens) (Q96SW2 whole entry, looked up): as the sequence (Q96SW2 whole entry, looked up, one chain of several) above

[13] = biological target: T1, Protein cereblon/Interleukin-1 receptor-associated kinase 3; experiment: Protac activity at CRBN/IRAK3 in human THP1 cells assessed as induction of IRAK3 degradation at 0.1 uM measured after 6 hrs in presence of NEDD8-activating enzyme inhibitor MLN4924 by Western blot analysis; assay type: cell-based; details: THP-1
THP-1 [14] = experiment: Selectivity ratio of Kd(app) for displacement of polymer supported probe 25 binding to GSG2 in human THP-1 cell lysates to Kd(app) for displacement of polymer supported probe 25 binding to IRAK3 in human THP-1 cell lysates
CDK8/Cyclin C = CDK8/Cyclin C (Homo sapiens, UniProt P49336); experiment: Inhibition of CDK8/cyclin C (unknown origin); assay type: protein-complex assay
Sequence of CDK8/Cyclin C (P49336 whole entry): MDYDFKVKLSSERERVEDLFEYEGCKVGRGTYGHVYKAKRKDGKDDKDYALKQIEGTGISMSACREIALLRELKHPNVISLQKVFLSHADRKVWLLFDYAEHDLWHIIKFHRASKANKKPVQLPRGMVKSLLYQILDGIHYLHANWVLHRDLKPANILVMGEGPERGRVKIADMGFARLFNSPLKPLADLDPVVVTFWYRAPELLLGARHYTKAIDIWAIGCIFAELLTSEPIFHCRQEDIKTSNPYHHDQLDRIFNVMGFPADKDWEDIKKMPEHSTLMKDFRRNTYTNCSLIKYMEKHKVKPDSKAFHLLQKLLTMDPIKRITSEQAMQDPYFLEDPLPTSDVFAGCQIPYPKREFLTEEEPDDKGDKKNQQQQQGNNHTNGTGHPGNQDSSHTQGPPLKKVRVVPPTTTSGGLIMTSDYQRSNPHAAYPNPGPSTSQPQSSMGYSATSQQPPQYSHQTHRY
Sequence of CDK8/Cyclin C (P24863 whole entry, further chain): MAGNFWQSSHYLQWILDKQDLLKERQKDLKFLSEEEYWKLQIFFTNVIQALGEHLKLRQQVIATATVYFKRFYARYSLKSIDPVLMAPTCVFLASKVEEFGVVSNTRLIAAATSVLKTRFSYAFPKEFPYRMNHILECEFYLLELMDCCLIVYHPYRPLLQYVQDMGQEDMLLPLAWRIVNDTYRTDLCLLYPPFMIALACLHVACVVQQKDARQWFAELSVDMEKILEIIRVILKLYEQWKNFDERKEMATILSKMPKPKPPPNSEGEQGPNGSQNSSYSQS

[15] = biological target: T1, Protein cereblon/Interleukin-1 receptor-associated kinase 3; experiment: Protac activity at CRBN/IRAK3 in human PBMC derived primary macrophages assessed as induction of IRAK3 degradation at 0.3 uM measured after 8 to 32 hrs by Western blot analysis; assay type: tissue-based; details: Primary macrophage, time hrs 8-32
THP-1 [16] = experiment: Selectivity ratio of Kd(app) for displacement of polymer supported probe 25 binding to CDK8 in human THP-1 cell lysates to Kd(app) for displacement of polymer supported probe 25 binding to IRAK3 in human THP-1 cell lysates

In the case of `CC(C)c1ccn2ncnc(N[C@H]3CC[C@@H](N4CCN(C(=O)CCC(=O)N5CCC(CCN6CCN(c7ccc8c(c7)C(=O)N(C7CCC(=O)NC7=O)C8=O)CC6)CC5)CC4)CC3)c12` (some centres not stated), the Selectivity ratio (THP-1 [1]) is reported as greater than 880, the Activity [2] is reported as “Active” and the Activity [3] is reported as “inactive”. The Activity [4] was “inactive”, the Activity [5] was “inactive” and the Kd [6] was 0.034 µM. The inhibition [7] was 45%, the Emax [8] was 98% and the Activity [9] was “inactive”. The Kd [10] was greater than 30 µM, the IC50 [11] was 1.4 µM and the Activity [12] was “inactive”. The Activity [13] was “inactive”, the Selectivity ratio (THP-1 [14]) was 23 and the IC50 (CDK8/Cyclin C) was 0.036 µM. The Activity [15] was “Active” and the Selectivity ratio (THP-1 [16]) was 41.
